Counter-ions that a name gives are not always drawn. Like-named read-outs stand apart in the source and are kept apart here. No end group written: not given here.
Experiments:
rat prostate = assay: Prostate volume in rats after intraprostatic (whole gland) injection; assay type: in vivo, Sprague-Dawley rats; conditions: control injection 0.5 mL HCl in water pH 3.0-5.0, 24 hr-10 days
Procedure: (§1) Two month old Sprague-Dawley rats (n=268) weighing 200 to 300 g, housed in groups of 2-5 per cage at room temperature (24-26° C.), with standard unrestricted diet and water, were anesthetized with ether and underwent open laparoscopic injections, using sterile precautions and sterile techniques, without antibiotics, of 0.3 mL of FT 0.1-2.0 mg/mL in phosphate buffered saline (PBS) pH 7.4, administered by #26 gauge sterile needles attached to sterile syringes. The animals received a “whole gland” injection in an amount roughly 20 times the amount previously administered to humans. […] The rats were daily observed and painlessly sacrificed after post-treatment intervals of 24 hours to 12 months under either anesthesia.
(§2) Sub-groups of rats received repeated injections (2×-8×, on a once weekly basis) (Table 1).
(§3) Apoptosis was evaluated microscopically in H&E stained sections, including rats sacrificed after 24, 48, and 72 hours, 4-8 days, and 1, 3, 6, and 12 months. […] TUNEL staining was assessed in 21 animals (72 hours; 7 days, post-treatment). Prostate volume (calculated by approximation to a sphere using the mean of 8 perpendicular diameters (2 per section at 90 degrees; on four sections) and calculations of 4/3 π(D/2)^3) were assessed in all animals and all controls. […]

[1] = system: rat prostate glandular epithelium, nerves, stroma, vessels; assay: Prostate histology (H&E, Bielschowsky silver, TUNEL) in treated rats; assay type: in vivo, Sprague-Dawley rats
Procedure: as §1
Prostate glands were removed, bisected, and immersed in 10% formalin solution, and subsequently embedded in paraffin, sectioned, and stained with (1) hematoxylin-eosin (H&E); (2) Bielschowsky silver method for nerve fibers; and (3) immunohistochemical TUNEL staining. TUNEL (Terminal deoxynucleotidyl transferase (dUTP) nick end labeling) detects DNA fragmentation by labeling the 3′-hydroxyl termini in the double-stand DNA breaks generated during apoptosis. Prostate cell lines (PC3 and LNCAP) were treated with FT 0.001 or 0.25 mg/mL in 6, 24, and 48 well plates and harvested and pelleted at 0, 12, 24, and 48 hours. […] The same treated cell lines under the same conditions were also stained in vitro after treatment using Annexin V immunofluorescence methods and viewed under ultraviolet light, and cell loss in vitro was assessed quantitatively (Multitox-Fluor, Promega). […]
as §3

[2] = in vivo
Text: as §2

Row | Compound | Prostate Volume mm^3-Mean (SD) (rat prostate) | rats with focal ischemic or hemorrhagic infarctions and necrosis ([1]; HCl pH 3.0-5.0 injected, involving <5% of the cross-sectional area) | toxic effects ([2]; dog) | toxic effects ([2]; rabbit) | toxic effects ([2]; rat) | nerves and blood vessels ([1]; all time intervals) | nerve histology ([1]; all time points including 6 months and 1 year)
1 | Cl [HCl, reference compound] | 859.7 (278.1) mm^3 | 2/12 |  |  |  |  | 
2 | IDQQVLSRIKLEIKRCL [FT, Ile-Asp-Gln-Gln-Val-Leu-Ser-Arg-Ile-Lys-Leu-Glu-Ile-Lys-Arg-Cys-Leu] |  |  | no toxic effects | no toxic effects | no toxic effects | intact | normal appearing nerves

Reference: patent US20200061150A1, “METHOD OF INDUCING SELECTIVE PROSTATE GLANDULAR PHARMACO-ABLATION WITH SPARING OF NERVES AND PRESERVATION OF SEXUAL FUNCTION” (Nymox Corporation, priority 2018, published 2020)
